From ChEMBL document CHEMBL1149936, “Discovery of selective dopamine D3 ligands: II. 2-[4-[3-(4-aryl-1-piperazinyl)propoxy]phenyl]benzimidazole partial agonists” (Bioorg Med Chem Lett, 1995)
pKi: −log10 of the molar value. Active and inactive are the calls of the source. The calls are words filed in the database; no cut-off is given here.

Legend:
D(2) dopamine receptor = D(2) dopamine receptor (Homo sapiens, UniProt P14416); experiment: Binding affinity towards cloned human Dopamine D2 receptor in CHO cells using [3H]spiperone as radioligand; assay type: cell-based
D(3) dopamine receptor = D(3) dopamine receptor (Homo sapiens, UniProt P35462); experiment: Binding affinity towards cloned human Dopamine D3 receptor in CHO cells using [3H]spiperone as radioligand; assay type: cell-based
Mus musculus = experiment: Inhibitory effect on exploratory locomotor activity in mice after ip administration; assay type: functional
Rattus norvegicus [1] = experiment: Inhibitory effect on exploratory locomotor activity in rats at a dose of 30 mg/kg after oral administration; no effect; assay type: functional, organism-based; set-up: dose 30 mg/kg
Rattus norvegicus [2] = experiment: Inhibitory effect on exploratory locomotor activity in rats after ip administration; assay type: functional

D(2) dopamine receptor, sequence (P14416 whole entry): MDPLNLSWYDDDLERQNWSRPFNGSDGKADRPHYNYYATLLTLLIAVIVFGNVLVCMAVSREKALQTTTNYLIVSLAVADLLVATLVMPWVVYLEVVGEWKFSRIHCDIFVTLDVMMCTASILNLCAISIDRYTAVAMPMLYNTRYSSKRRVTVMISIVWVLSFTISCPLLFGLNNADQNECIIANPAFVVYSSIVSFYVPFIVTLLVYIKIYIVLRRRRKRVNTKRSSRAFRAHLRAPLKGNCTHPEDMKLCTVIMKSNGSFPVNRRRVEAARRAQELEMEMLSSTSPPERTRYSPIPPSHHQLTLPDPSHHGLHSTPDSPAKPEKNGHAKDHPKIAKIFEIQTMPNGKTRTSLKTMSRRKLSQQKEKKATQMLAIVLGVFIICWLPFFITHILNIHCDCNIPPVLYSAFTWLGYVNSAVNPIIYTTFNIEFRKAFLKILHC
D(3) dopamine receptor, sequence (P35462 whole entry): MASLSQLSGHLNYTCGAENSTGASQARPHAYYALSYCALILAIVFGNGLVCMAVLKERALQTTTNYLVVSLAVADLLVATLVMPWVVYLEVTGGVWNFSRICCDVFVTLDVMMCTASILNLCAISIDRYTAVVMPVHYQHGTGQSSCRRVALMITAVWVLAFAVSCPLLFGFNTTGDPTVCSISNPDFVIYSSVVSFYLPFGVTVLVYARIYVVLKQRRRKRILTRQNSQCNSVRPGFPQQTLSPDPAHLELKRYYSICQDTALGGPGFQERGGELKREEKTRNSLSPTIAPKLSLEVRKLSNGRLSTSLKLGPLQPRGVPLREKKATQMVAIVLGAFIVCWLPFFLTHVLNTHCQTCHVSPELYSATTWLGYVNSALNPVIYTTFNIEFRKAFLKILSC

SMILES	pKi (D(2) dopamine receptor)	pKi (D(3) dopamine receptor)	ED50 (Mus musculus) [mg/kg]	ED50 (Rattus norvegicus [1])	ED50 (Rattus norvegicus [2]) [mg/kg]
Clc1ccc(N2CCN(CCCOc3ccc(-c4nc5ccccc5[nH]4)cc3)CC2)cc1	6.06	7.57			
COc1ccc(N2CCN(CCCOc3ccc(-c4nc5ccccc5[nH]4)cc3)CC2)cc1	6.53	6.89			
COc1ccccc1N1CCN(CCCOc2ccc(-c3nc4ccccc4[nH]3)cc2)CC1	8.06	8.77			
CCCSc1ccccc1N1CCN(CCCOc2ccc(-c3nc4ccccc4[nH]3)cc2)CC1	8.10				
c1cnc(N2CCN(CCCOc3ccc(-c4nc5ccccc5[nH]4)cc3)CC2)nc1	6.57				
c1ccc(N2CCN(CCCOc3ccc(-c4nc5ccccc5[nH]4)cc3)CC2)cc1	6.39	8.82	2.3	inactive	7.1
Clc1cccc(N2CCN(CCCOc3ccc(-c4nc5ccccc5[nH]4)cc3)CC2)c1	5.85	6.81			
c1ccc(N2CCN(CCCOc3ccc(-c4nc5ccccc5[nH]4)cc3)CC2)nc1	7.15				
CN1CCN(CCCOc2ccc(-c3nc4ccccc4[nH]3)cc2)CC1	< 5.48	5.70			
Clc1ccccc1N1CCN(CCCOc2ccc(-c3nc4ccccc4[nH]3)cc2)CC1	6.90	7.74			
